Source: ChEMBL document CHEMBL3045795, “Peroxidizing Phytotoxic Activity of 1, 3, 4-Thiadiazolidine-2-thiones and 1, 2, 4-Triazolidine-3, 5-dithiones” (J Pestic Sci, 1995)

Legend:
[1] = target: T1, Protoporphyrinogen IX oxidase (UniProt C1N1S5); assay: Inhibition of Protoporphyrinogen IX oxidase in Scenedesmus acutus assessed as protoporphyrin IX level per ml of packed cell volume by HPLC; also: test concentration or dose not given here
T1 sequence (whole entry): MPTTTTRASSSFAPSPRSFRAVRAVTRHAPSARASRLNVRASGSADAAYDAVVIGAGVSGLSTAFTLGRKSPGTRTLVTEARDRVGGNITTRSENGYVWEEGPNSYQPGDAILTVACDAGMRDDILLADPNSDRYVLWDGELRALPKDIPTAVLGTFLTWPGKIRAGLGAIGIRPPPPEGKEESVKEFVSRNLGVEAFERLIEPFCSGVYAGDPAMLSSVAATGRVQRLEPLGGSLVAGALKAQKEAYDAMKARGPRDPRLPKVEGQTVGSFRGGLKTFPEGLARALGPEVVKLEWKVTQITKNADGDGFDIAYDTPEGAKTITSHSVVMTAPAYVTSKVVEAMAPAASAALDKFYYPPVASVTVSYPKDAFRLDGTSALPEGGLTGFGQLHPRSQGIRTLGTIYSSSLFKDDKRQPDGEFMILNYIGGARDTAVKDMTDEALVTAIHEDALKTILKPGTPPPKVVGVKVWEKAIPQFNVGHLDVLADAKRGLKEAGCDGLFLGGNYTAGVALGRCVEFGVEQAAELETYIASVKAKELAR

[2] = system: Scenedesmus acutus; assay: Phytotoxicity against Scenedesmus acutus assessed as reduction in chlorophyll content by spectrophotometry; type: functional, organism-based; settings: read-out: pI50 (converted)
[3] = target: T2, Protoporphyrinogen IX oxidase (Zea mays, UniProt Q9FYV8); assay: Inhibition of Protoporphyrinogen IX oxidase in Zea mays cv. Anjou (maize) seedlings etioplasts homogenates assessed as reduction in protoporphyrin IX production by fluorescence spectroscopy; settings: read-out: pI50 (converted)
T2 sequence (Q9FYV8 whole entry): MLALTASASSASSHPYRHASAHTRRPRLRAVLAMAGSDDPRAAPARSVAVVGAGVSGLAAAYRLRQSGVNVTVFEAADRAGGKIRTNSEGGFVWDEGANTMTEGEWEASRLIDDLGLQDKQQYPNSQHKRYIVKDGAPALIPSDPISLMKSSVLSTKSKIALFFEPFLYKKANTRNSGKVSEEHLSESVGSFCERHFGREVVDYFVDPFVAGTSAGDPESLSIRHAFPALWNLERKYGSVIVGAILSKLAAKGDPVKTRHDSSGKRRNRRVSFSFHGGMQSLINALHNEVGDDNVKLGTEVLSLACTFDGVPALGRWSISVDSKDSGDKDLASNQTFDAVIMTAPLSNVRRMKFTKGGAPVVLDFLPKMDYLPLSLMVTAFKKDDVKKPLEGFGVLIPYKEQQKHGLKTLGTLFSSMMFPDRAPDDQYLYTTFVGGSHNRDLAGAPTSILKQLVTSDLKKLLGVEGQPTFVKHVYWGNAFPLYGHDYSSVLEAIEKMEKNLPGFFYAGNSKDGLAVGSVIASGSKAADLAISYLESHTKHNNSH

[4] = system: Scenedesmus acutus; assay: Peroxidizing phytotoxicity against Scenedesmus acutus assessed as ethane production after 20 hr by gas chromatography; type: functional, organism-based; settings: read-out: pI50 (converted)
[5] = system: Scenedesmus acutus; assay: Growth inhibition of Scenedesmus acutus assessed as reduction in packed cell volume; type: functional, organism-based; settings: read-out: pI50 (converted)

| SMILES | Activity [1] | IC50 [2] | IC50 [3] | IC50 [4] | IC50 [5] |
| --- | --- | --- | --- | --- | --- |
| C#CCOc1cc(-n2c(=S)n3n(c2=S)CCCC3)c(F)cc1Cl | 87.2 nmol | 1.7 nM | 8.91 nM | 7.24 nM | 2.04 nM |
| S=c1n(-c2ccc(Br)cc2)c(=S)n2n1CCCC2 | 67.9 nmol | 37.2 nM | 7.24 nM | 46.8 nM | 64.6 nM |
| S=c1s/c(=N\c2ccccc2)n2n1CCCC2 | 10.8 nmol | 13800 nM | > 31600 nM | 4370 nM | 14100 nM |
| S=c1n(-c2ccc(OCc3ccc(Cl)cc3)cc2)c(=S)n2n1CCCC2 | 80.3 nmol | 15.5 nM | 12 nM | 22.9 nM | 17.4 nM |
| S=c1s/c(=N\c2ccc(Cl)cc2)n2n1CCCC2 | 20.3 nmol | 234 nM | 1100 nM | 550 nM | 339 nM |
| S=c1s/c(=N\c2ccc(OCc3ccc(Cl)cc3)cc2)n2n1CCCC2 | 30.7 nmol | 20 nM | 813 nM | 120 nM | 21.9 nM |
| S=c1s/c(=N\c2ccc(Br)cc2)n2n1CCCC2 | 25.3 nmol | 148 nM | 741 nM | 550 nM | 162 nM |
| Cc1cc(Cl)ccc1/N=c1\sc(=S)n2n1CCCC2 | 20.3 nmol | 275 nM | 7590 nM | 513 nM | 457 nM |
| CC(C)Oc1cc(/N=c2\sc(=S)n3n2CCCC3)c(F)cc1Cl | 30.7 nmol | 11.2 nM | 617 nM | 166 nM | 13.8 nM |
| Cc1cc(Cl)ccc1-n1c(=S)n2n(c1=S)CCCC2 | 63.3 nmol | 85.1 nM | 151 nM | 85.1 nM | 105 nM |
| Fc1cc(Cl)ccc1/N=c1\sc(=S)n2n1CCCC2 | 31.5 nmol | 67.6 nM | 1100 nM | 91.2 nM | 120 nM |
| S=c1n(-c2ccccc2)c(=S)n2n1CCCC2 | 13.2 nmol | 6310 nM | 3240 nM | 2040 nM | 7940 nM |
| S=c1n(-c2ccc(Cl)cc2)c(=S)n2n1CCCC2 | 50.3 nmol | 43.7 nM | 6.76 nM | 50.1 nM | 61.7 nM |
| COC(=O)CSc1cc(-n2c(=S)n3n(c2=S)CCCC3)c(F)cc1Cl | 56 nmol | 141 nM | – | 158 nM | 186 nM |
| CC(C)Oc1cc(-n2c(=S)n3n(c2=S)CCCC3)c(F)cc1Cl | 60.2 nmol | 5.25 nM | 1.2 nM | 67.6 nM | 7.59 nM |
| Fc1cc(Cl)ccc1-n1c(=S)n2n(c1=S)CCCC2 | 70.3 nmol | 18.2 nM | 7.24 nM | 27.5 nM | 23.4 nM |
| CCOc1cc(Oc2ccc(C(F)(F)F)cc2Cl)ccc1[N+](=O)[O-] [OXYFLUORFEN] | 65.6 nmol | 21.4 nM | 7.94 nM | 41.7 nM | 30.9 nM |
| COC(=O)CSc1cc(/N=c2\sc(=S)n3n2CCCC3)c(F)cc1Cl | 34.1 nmol | 191 nM | 120 nM | 389 nM | 245 nM |
| C#CCOc1cc(/N=c2\sc(=S)n3n2CCCC3)c(F)cc1Cl | 63.5 nmol | 5.5 nM | 204 nM | 79.4 nM | 7.24 nM |
